In the first assay the target is T1, Z A1AT (Homo sapiens, UniProt P01009, E366K).
T1 construct: expressed in transfected cells; host or cells: HEK-Z (human embryonic kidney cells stably transfected with the human Z A1AT gene)
T1 sequence (P01009 25-418 E366K): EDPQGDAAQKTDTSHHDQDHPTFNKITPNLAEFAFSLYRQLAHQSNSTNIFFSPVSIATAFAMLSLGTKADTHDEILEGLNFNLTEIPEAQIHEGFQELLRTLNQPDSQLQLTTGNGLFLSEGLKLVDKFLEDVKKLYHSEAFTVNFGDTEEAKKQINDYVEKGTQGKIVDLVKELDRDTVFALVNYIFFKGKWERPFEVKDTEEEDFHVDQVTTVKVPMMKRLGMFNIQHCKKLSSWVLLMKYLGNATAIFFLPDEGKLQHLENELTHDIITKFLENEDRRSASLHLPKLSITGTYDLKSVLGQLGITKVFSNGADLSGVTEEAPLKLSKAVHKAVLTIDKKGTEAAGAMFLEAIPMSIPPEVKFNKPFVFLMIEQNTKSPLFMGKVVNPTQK
Put plainly: A1AT cell secretion assay using HEK-Z cells. Conditions: 300 nM, 48 h, supernatant A1AT by ELISA, read-out: Median A1AT % increase over vehicle at 300 nM. Format: cell-based. The procedure: HEK-Z cells, a human embryonic kidney cell line stably transfected with the human Z A1AT gene, were plated into 96 well plates (3.0×10^5 cells/ml with 200 μl of media/well) overnight at 37° C. in a humidified atmosphere containing 5% CO2. Following incubation cells were washed with 200 μl serum-free media three times and media was replaced with treatments in quadruplicate using serum free media containing either vehicle, 10 μM suberanilohydroxamic acid (SAHA) or a compound of the invention (at concentrations of 10, 33, 100 and 333 nM) for 48 h in a 37° C. incubator in a final volume of 200 μl. At the end of the incubation step the supernatants were removed from the wells, centrifuged at 1000×g at 4° C. for 10 min and were assayed for human A1AT levels by ELISA (Human Serpin A1/α1-antitrypsin duo set ELISA, R& D Systems, DY1268) per manufacturer's instructions.
Briefly, a 96 well plate was coated with human A1AT capture antibody overnight at room temperature (1:180 dilution from stock, 100 μl final volume/well). The capture antibody was then removed and wells washed three times with 300 μl wash buffer (0.05% Tween 20 in PBS) and then 200 μl reagent diluent ([…]) was incubated in each well for 1 h at room temperature. Diluted samples, standards (125, 250, 500, 1000, 2000, 4000 and 8000 pg/ml A1AT) or blanks were then added to each well in duplicate and the plates were covered with a plate sealer and left at room temperature for 2 h. At the end of the sample incubation step, samples were removed and all wells washed as previously and 100 μl detection antibody (1:180 dilution from stock) was added to each well and incubated for a further 2 h at room temperature. Following incubation with detection antibody, supernatant was removed and wells were washed as previously and 100 μl streptavidin-HRP solution (1:200 dilution from stock) was added to each well for 20 min in the dark. After which, 50 μl stop solution (2M H2SO4) was added and optical density (OD) of each well was read at 450 nm with 570 nm blank subtracted from each well using a microplate reader. A 4-parameter logistic curve was constructed using GraphPad Prism 7 and A1AT concentrations were determined in each sample by interpolation from a standard curve and multiplying by the appropriate dilution factor.
(In general: In an ELISA, binding on a coated surface is turned into a signal by an enzyme label.)
Turning to `CN(Cc1ccccc1)C(=O)c1ccc(Cn2c(=O)cc[nH]c2=O)cc1` [Example 8, N-benzyl-4-((2,6-dioxo-3,6-dihydropyrimidin-1(2H)-yl)methyl)-N-methylbenzamide], the activation at 0.3 µM is 175%.
`CC(C)NC(=O)c1ccc(Cn2ccc(=O)[nH]c2=O)cc1` [Example 3, 4-((2,4-dioxo-3,4-dihydropyrimidin-1(2H)-yl)methyl)-N-isopropylbenzamide]: the activation at 0.3 µM came to 190%.
The same measure, in the same setting: to `CN(C)C(=O)c1ccc(Cn2ccc(=O)[nH]c2=O)cc1` [Example 1, 4-((2,4-dioxo-3,4-dihydropyrimidin-1(2H)-yl)methyl)-N,N-dimethylbenzamide] belongs 130%.
On to `CN(C)C(=O)c1ccc(Cn2c(=O)cc[nH]c2=O)cc1` [Example 5, 4-((2,6-dioxo-3,6-dihydropyrimidin-1(2H)-yl)methyl)-N,N-dimethylbenzamide], for which the activation at 0.3 µM was found to be 140%.
Still for that read-out and setting: to `O=C(NCc1ccc(F)cc1)c1ccc(Cn2ccc(=O)[nH]c2=O)cc1` [Example 4, 4-((2,4-dioxo-3,4-dihydropyrimidin-1(2H)-yl)methyl)-N-(4-fluorobenzyl)benzamide] belongs 170%; to `CN(CC(F)(F)F)C(=O)c1ccc(Cn2c(=O)cc[nH]c2=O)cc1` [Example 9, 4-((2,6-dioxo-3,6-dihydropyrimidin-1(2H)-yl)methyl)-N-methyl-N-(2,2,2-trifluoroethyl)benzamide], 180%; to `CNC(=O)c1ccc(Cn2ccc(=O)[nH]c2=O)cc1` [Example 2, 4-((2,4-dioxo-3,4-dihydropyrimidin-1(2H)-yl)methyl)-N-methylbenzamide], 175%.
The same measure, in the same setting: the result for `CCN(C)C(=O)c1ccc(Cn2c(=O)cc[nH]c2=O)cc1` [Example 6, 4-((2,6-dioxo-3,6-dihydropyrimidin-1(2H)-yl)methyl)-N-ethyl-N-methylbenzamide] reads 190%.
On the same count and under the same terms, to `CC(C)N(C)C(=O)c1ccc(Cn2c(=O)cc[nH]c2=O)cc1` [Example 7, 4-((2,6-dioxo-3,6-dihydropyrimidin-1(2H)-yl)methyl)-N-isopropyl-N-methylbenzamide] belongs 170%.

The target in the next assay is wild-type A1AT (M) (Homo sapiens, UniProt P01009).
wild-type A1AT (M), sequence (P01009 25-418): as the sequence (P01009 25-418 E366K) above, with K342E counted along it
Assay: not given
To be noted: cited from earlier work.
As to `O=S(=O)(O)c1cccc2c(-c3ccc(Nc4ccccc4)c4c(S(=O)(=O)O)cccc34)ccc(Nc3ccccc3)c12` [bis-ANS, 4,4′-dianilino-1,1′-binaphthyl-5,5′-disulfonate], the “binding to wild-type A1AT (M)” value is reported as “not to wild-type A1AT (M)”.
